# Data from PubChem BioAssay (NCI).
#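 Results reflect a 48-hour exposure of cells in 96-well plates to compound at five concentrations. TGI marks complete inhibition of growth.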
# What was measured:
# Assay in all cases: NCI tumour cell line growth inhibition, 48 h
# 786-0 renal = test system: 786-0 renal
# A498 renal = test system: A498 renal
# A549 NSCLC = test system: A549 NSCLC
# ACHN renal = test system: ACHN renal
# CAKI-1 renal = test system: CAKI-1 renal
# CCRF-CEM leukemia = test system: CCRF-CEM leukemia
# COLO 205 colon = test system: COLO 205 colon
# DU-145 prostate = test system: DU-145 prostate
# EKVX NSCLC = test system: EKVX NSCLC
# HCC-2998 colon = test system: HCC-2998 colon
# HCT-116 colon = test system: HCT-116 colon
# HCT-15 colon = test system: HCT-15 colon
# HL-60(TB) leukemia = test system: HL-60(TB) leukemia
# HOP-62 NSCLC = test system: HOP-62 NSCLC
# HS 578T breast = test system: HS 578T breast
# HT29 colon = test system: HT29 colon
# IGROV1 ovarian = test system: IGROV1 ovarian
# K-562 leukemia = test system: K-562 leukemia
# KM12 colon = test system: KM12 colon
# LOX IMVI melanoma = test system: LOX IMVI melanoma
# M14 melanoma = test system: M14 melanoma
# MALME-3M melanoma = test system: MALME-3M melanoma
# MCF7 breast = test system: MCF7 breast
# MDA-MB-231 breast = test system: MDA-MB-231 breast
# MDA-MB-435 = test system: MDA-MB-435
# MDA-N = test system: MDA-N
# MOLT-4 leukemia = test system: MOLT-4 leukemia
# NCI-H226 lung = test system: NCI-H226 lung
# NCI-H23 lung = test system: NCI-H23 lung
# NCI-H460 lung = test system: NCI-H460 lung
# NCI-H522 lung = test system: NCI-H522 lung
# NCI/ADR-RES ovarian = test system: NCI/ADR-RES ovarian
# OVCAR-3 ovarian = test system: OVCAR-3 ovarian
# OVCAR-4 ovarian = test system: OVCAR-4 ovarian
# OVCAR-5 ovarian = test system: OVCAR-5 ovarian
# OVCAR-8 ovarian = test system: OVCAR-8 ovarian
# PC-3 prostate = test system: PC-3 prostate
# RPMI-8226 leukemia = test system: RPMI-8226 leukemia
# RXF 393 renal = test system: RXF 393 renal
# SF-268 CNS = test system: SF-268 CNS
# SF-295 CNS = test system: SF-295 CNS
# SF-539 CNS = test system: SF-539 CNS
# SK-MEL-2 melanoma = test system: SK-MEL-2 melanoma
# SK-MEL-28 melanoma = test system: SK-MEL-28 melanoma
# SK-MEL-5 melanoma = test system: SK-MEL-5 melanoma
# SK-OV-3 ovarian = test system: SK-OV-3 ovarian
# SN12C renal = test system: SN12C renal
# SNB-19 CNS = test system: SNB-19 CNS
# SNB-75 CNS = test system: SNB-75 CNS
# SR leukemia = test system: SR leukemia
# SW-620 colon = test system: SW-620 colon
# T-47D breast = test system: T-47D breast
# TK-10 renal = test system: TK-10 renal
# U251 CNS = test system: U251 CNS
# UACC-257 melanoma = test system: UACC-257 melanoma
# UACC-62 melanoma = test system: UACC-62 melanoma
# UO-31 renal = test system: UO-31 renal
compound,measurement,setting,value
O=C1OCC(CN2CCC(n3c(=O)[nH]c4ccccc43)CC2)=C1c1ccccc1,TGI,786-0 renal,82.5 µM
same,TGI,A498 renal,68.6 µM
same,TGI,A549 NSCLC,> 100 µM
same,TGI,ACHN renal,89.6 µM
same,TGI,CAKI-1 renal,51.4 µM
same,TGI,CCRF-CEM leukemia,60.5 µM
same,TGI,COLO 205 colon,28.1 µM
same,TGI,DU-145 prostate,71.7 µM
same,TGI,EKVX NSCLC,57.1 µM
same,TGI,HCC-2998 colon,77.2 µM
same,TGI,HCT-116 colon,92.7 µM
same,TGI,HCT-15 colon,54.9 µM
same,TGI,HL-60(TB) leukemia,40.7 µM
same,TGI,HOP-62 NSCLC,64.5 µM
same,TGI,HS 578T breast,60.4 µM
same,TGI,HT29 colon,58.6 µM
same,TGI,IGROV1 ovarian,51.1 µM
same,TGI,K-562 leukemia,> 100 µM
same,TGI,KM12 colon,31.2 µM
same,TGI,LOX IMVI melanoma,56.2 µM
same,TGI,M14 melanoma,33.4 µM
same,TGI,MALME-3M melanoma,56.6 µM
same,TGI,MCF7 breast,96.4 µM
same,TGI,MDA-MB-231 breast,79.3 µM
same,TGI,MDA-MB-435,62.4 µM
same,TGI,MDA-N,78.7 µM
same,TGI,MOLT-4 leukemia,60 µM
same,TGI,NCI-H226 lung,76.7 µM
same,TGI,NCI-H23 lung,52.2 µM
same,TGI,NCI-H460 lung,21.2 µM
same,TGI,NCI-H522 lung,46.5 µM
same,TGI,NCI/ADR-RES ovarian,59.6 µM
same,TGI,OVCAR-3 ovarian,60.6 µM
same,TGI,OVCAR-4 ovarian,39.6 µM
same,TGI,OVCAR-5 ovarian,> 100 µM
same,TGI,OVCAR-8 ovarian,31.6 µM
same,TGI,PC-3 prostate,41.6 µM
same,TGI,RPMI-8226 leukemia,56.1 µM
same,TGI,RXF 393 renal,> 100 µM
same,TGI,SF-268 CNS,95.5 µM
same,TGI,SF-295 CNS,72.6 µM
same,TGI,SF-539 CNS,35.6 µM
same,TGI,SK-MEL-2 melanoma,38.1 µM
same,TGI,SK-MEL-28 melanoma,61 µM
same,TGI,SK-MEL-5 melanoma,28.9 µM
same,TGI,SK-OV-3 ovarian,94.2 µM
same,TGI,SN12C renal,53.1 µM
same,TGI,SNB-19 CNS,67.3 µM
same,TGI,SNB-75 CNS,72.4 µM
same,TGI,SR leukemia,82.5 µM
same,TGI,SW-620 colon,> 100 µM
same,TGI,T-47D breast,24.6 µM
same,TGI,TK-10 renal,63.1 µM
same,TGI,U251 CNS,> 100 µM
same,TGI,UACC-257 melanoma,47.3 µM
same,TGI,UACC-62 melanoma,26.9 µM
same,TGI,UO-31 renal,35.2 µM
c1ccc2c(CCNC3=NCCO3)cccc2c1,TGI,A498 renal,> 10 µM
same,TGI,A549 NSCLC,> 10 µM
same,TGI,ACHN renal,> 10 µM
same,TGI,CAKI-1 renal,> 10 µM
same,TGI,CCRF-CEM leukemia,> 10 µM
same,TGI,COLO 205 colon,> 10 µM
same,TGI,DU-145 prostate,> 10 µM
same,TGI,EKVX NSCLC,> 10 µM
same,TGI,HCC-2998 colon,> 10 µM
same,TGI,HCT-116 colon,> 10 µM
same,TGI,HCT-15 colon,> 10 µM
same,TGI,HL-60(TB) leukemia,> 10 µM
same,TGI,HOP-62 NSCLC,> 10 µM
same,TGI,HS 578T breast,> 10 µM
same,TGI,HT29 colon,> 10 µM
same,TGI,IGROV1 ovarian,> 10 µM
same,TGI,K-562 leukemia,> 10 µM
same,TGI,KM12 colon,> 10 µM
same,TGI,LOX IMVI melanoma,> 10 µM
same,TGI,M14 melanoma,> 10 µM
same,TGI,MALME-3M melanoma,> 10 µM
same,TGI,MCF7 breast,> 10 µM
same,TGI,MDA-MB-231 breast,> 10 µM
same,TGI,MDA-MB-435,> 10 µM
same,TGI,MDA-N,> 10 µM
same,TGI,MOLT-4 leukemia,> 10 µM
same,TGI,NCI-H226 lung,> 10 µM
same,TGI,NCI-H23 lung,> 10 µM
same,TGI,NCI-H460 lung,> 10 µM
same,TGI,NCI-H522 lung,> 10 µM
same,TGI,NCI/ADR-RES ovarian,> 10 µM
same,TGI,OVCAR-3 ovarian,> 10 µM
same,TGI,OVCAR-4 ovarian,> 10 µM
same,TGI,OVCAR-5 ovarian,> 10 µM
same,TGI,OVCAR-8 ovarian,> 10 µM
same,TGI,PC-3 prostate,> 10 µM
same,TGI,RPMI-8226 leukemia,> 10 µM
same,TGI,RXF 393 renal,> 10 µM
same,TGI,SF-268 CNS,> 10 µM
same,TGI,SF-295 CNS,> 10 µM
same,TGI,SF-539 CNS,> 10 µM
same,TGI,SK-MEL-2 melanoma,> 10 µM
same,TGI,SK-MEL-28 melanoma,> 10 µM
same,TGI,SK-MEL-5 melanoma,> 10 µM
same,TGI,SK-OV-3 ovarian,> 10 µM
same,TGI,SNB-19 CNS,> 10 µM
same,TGI,SNB-75 CNS,> 10 µM
same,TGI,SR leukemia,> 10 µM
same,TGI,SW-620 colon,> 10 µM
same,TGI,T-47D breast,> 10 µM
same,TGI,TK-10 renal,> 10 µM
same,TGI,U251 CNS,> 10 µM
same,TGI,UACC-62 melanoma,> 10 µM
same,TGI,UO-31 renal,> 10 µM
